Where two headings read alike, the source gives them in different places.
Target: jack bean urease (Canavalia ensiformis, UniProt P07374)
Test: indophenol urease inhibition assay ([…] nm)
Format: biochemical

Chain of jack bean urease (P07374 whole entry, looked up): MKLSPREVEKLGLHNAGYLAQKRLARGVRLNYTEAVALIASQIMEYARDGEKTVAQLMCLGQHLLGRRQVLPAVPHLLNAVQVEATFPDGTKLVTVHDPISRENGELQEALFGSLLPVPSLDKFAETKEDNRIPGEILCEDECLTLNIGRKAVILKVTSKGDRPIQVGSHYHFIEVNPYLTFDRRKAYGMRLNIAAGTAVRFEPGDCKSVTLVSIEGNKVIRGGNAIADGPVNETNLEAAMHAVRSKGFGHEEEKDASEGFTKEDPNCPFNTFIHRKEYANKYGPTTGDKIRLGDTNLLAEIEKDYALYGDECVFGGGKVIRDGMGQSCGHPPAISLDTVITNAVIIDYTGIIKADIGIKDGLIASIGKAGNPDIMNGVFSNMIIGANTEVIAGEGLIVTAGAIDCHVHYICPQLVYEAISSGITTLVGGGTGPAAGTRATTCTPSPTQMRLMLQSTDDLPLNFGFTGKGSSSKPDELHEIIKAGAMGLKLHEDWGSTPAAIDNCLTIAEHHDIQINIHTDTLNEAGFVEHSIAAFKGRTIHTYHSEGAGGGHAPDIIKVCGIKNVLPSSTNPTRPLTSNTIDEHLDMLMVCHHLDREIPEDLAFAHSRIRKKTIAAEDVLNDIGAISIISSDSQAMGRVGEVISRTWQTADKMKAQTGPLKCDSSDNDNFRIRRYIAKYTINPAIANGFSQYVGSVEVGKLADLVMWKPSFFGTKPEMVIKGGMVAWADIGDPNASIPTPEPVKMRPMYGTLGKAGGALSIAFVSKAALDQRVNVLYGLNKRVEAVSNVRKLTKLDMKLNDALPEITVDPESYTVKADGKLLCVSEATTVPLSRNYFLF

| SMILES | IC50 (read-out: IC50 ± SEM) | IC50 |
| --- | --- | --- |
| NC(N)=S [Thiourea, reference compound] | 140 nM |  |
| O=c1cc(/N=C/c2ccc([N+](=O)[O-])cc2)c2ccccc2o1 [5a, (E)-4-(4-nitrobenzylideneamino)-2H-chromen-2-one] |  | 322 nM |
| O=c1cc(/N=C/c2cccc([N+](=O)[O-])c2)c2ccccc2o1 [3a, (E)-4-(3-nitrobenzylideneamino)-2H-chromen-2-one] |  | 412 nM |
| Cc1ccc(O)c(/C=N/c2cc(=O)oc3ccccc23)c1 [7a, (E)-4-(2-hydroxy-5-methylbenzylideneamino)-2H-chromen-2-one] |  | 112 nM |

Source: paper PMC10675132, “Novel Coumarin Derivatives as Potential Urease Inhibitors for Kidney Stone Prevention and Antiulcer Therapy: From Synthesis to In Vivo Evaluation” (Pharmaceuticals, 2023)
